SMILES strings stand for the structures. Some results are limits rather than exact numbers.

37 molecules from US9006226B2, “Dihydropteridinones I” (Boehringer Ingelheim International GmbH, priority 2012, dated 2015) can be followed below.

The assay has as its system Aβ42. The assay can be described thus: Aβ42 vs. Aβ total production in H4 neuroglioma cells stably expressing human APP695 (Meso Scale Discovery electrochemiluminescence assay). To be noted: the higher the ratio, the more specific the inhibition of Aβ42. The class given is cell-based. How it is done:
Cells were plated out to near confluency. The compounds to be tested were received as 10 mM stocks in 100% DMSO. A dilution series was initially generated in 100% DMSO and then diluted 200-fold in cell culture media such that the tested concentration range was 30 μM to 0.1 nM and the final DMSO concentration was 0.5%. The diluted compounds were incubated with the cells for 22 hours in an incubator at 37° C. and 5% CO2. Aβ42 as well as Aβ total levels were then measured post-incubation from the supernatant of the cells. Aβ42 levels were determined using a specific electrochemiluminescence assay provided by Meso Scale Discovery (Catalog #L21CA-1) according to the manufacturer's protocol. Aβ total levels were likewise determined using a specific electrochemiluminescence assay provided by Meso Scale Discovery (Catalog #L21ZA-1) according to the manufacturer's protocol.
In order to absolutely define the described compounds as modulators of γ-Secretase as opposed to simply inhibitors of γ-Secretase, measurements of not only Aβ42 but also Aβ total are performed.

On to `CCc1nc(Nc2ccc(-n3cnc(C)c3)c(OC)c2)nc2c1NC(=O)[C@H]1[C@@H](c3ccc(F)cc3)CCN21` (racemic) [Example 22], for which the “Ratio Aβ(total)/Aβ42 (Aβ total IC50/Aβ42 IC50)” value (“Ratio Aβ(total)/Aβ42” below) is 71.

On to `CCc1nc(Nc2ccc(-n3cnc(C)c3)c(OC)c2)nc2c1N(C)C(=O)[C@H]1[C@H](c3ccc(F)cc3)CCN21` (racemic) [Example 23], for which the “Ratio Aβ(total)/Aβ42” value was 90. With `CCc1nc(Nc2ccc(-n3cnc(C)c3)c(OC)c2)nc2c1NC(=O)[C@@]1(C)[C@@H](OC)CN21` (racemic) [Example 27] the figure was 70; with `COc1cc(Nc2ncc3c(n2)N2CCCCCC2C(=O)N3C)ccc1-n1cnc(C)c1` (stereo not shown) [Example 2], 59.

For `CCN1C(=O)C2CCCCCN2c2nc(Nc3ccc(-c4ccnc(C)c4)cc3)ncc21` (stereo not shown) [Example 3], the “Ratio Aβ(total)/Aβ42” value is 17. As for `CCCN1C(=O)C2CCCCCN2c2nc(Nc3ccc(-n4cnc(C)c4)c(OC)c3)ncc21` (stereo not shown) [Example 4], the figure is 44; as for `CCN1C(=O)C2CCCCCN2c2nc(Nc3ccc(-n4ccnc4)c(OC)c3)ncc21` (stereo not shown) [Example 5-2], 64; as for `CCN1C(=O)C2CCCCCN2c2nc(Nc3cnc(-n4cnc(C)c4)c(OC)c3)ncc21` (stereo not shown) [Example 5-4], more than 175.

On to `CCN1C(=O)C2CCCCCN2c2nc(Nc3ccc(-c4cnc(C)s4)c(OC)c3)ncc21` (stereo not shown) [Example 5-5], for which the “Ratio Aβ(total)/Aβ42” value was found to be 13.

As for `CCN1C(=O)C2CCCCCN2c2nc(Nc3ccc(-n4cnc(C)c4)cc3)ncc21` (stereo not shown) [Example 5-6], the “Ratio Aβ(total)/Aβ42” value was found to be 43. As for `CCN1C(=O)C2CCCCCN2c2nc(Nc3ccc(-n4cnc(C)c4)cc3OC)ncc21` (stereo not shown) [Example 5-7], the figure is 3; as for `CCCN1C(=O)C2CCCCCN2c2nc(Nc3ccc(-c4ccnc(C)c4)cc3)ncc21` (stereo not shown) [Example 5], 14; as for `CCc1nc(Nc2ccc(-n3cnc(C)c3)c(OC)c2)nc2c1N(C)C(=O)C1CCCN21` (stereo not shown) [Example 6], 96. With `CCc1nc(Nc2ccc(-n3cnc(C)c3)c(OC)c2)nc2c1NC(=O)C1CCCN21` (stereo not shown) [Example 7] the figure was 98; with `CCc1nc(Nc2ccc(-c3ccnc(C)c3)cc2)nc2c1N(C)C(=O)C1CCCN21` (stereo not shown) [Example 8], 62. As for `CCc1nc(Nc2ccc(-c3cnc(C)o3)nc2)nc2c1N(C)C(=O)C1CCCN21` (stereo not shown) [Example 9], the figure is more than 24; as for `COc1cc(Nc2ncc3c(n2)N2CCCC2C(=O)N3C)ccc1-n1cnc(C)c1` (stereo not shown) [Example 11], more than 310. In the case of `COc1cc(Nc2ncc3c(n2)N2CCCC2C(=O)N3C)ccc1-n1cnc(C)n1` (stereo not shown) [Example 12-1], the “Ratio Aβ(total)/Aβ42” value is reported as more than 10. As for `CN1C(=O)C2CCCN2c2nc(Nc3ccc(-c4cnn(C)c4)nc3)ncc21` (stereo not shown) [Example 12-2], the figure is more than 5; as for `Cc1cn(-c2ccc(Nc3ncc4c(n3)N3CCCC3C(=O)N4C)cc2F)cn1` (stereo not shown) [Example 12-3], more than 27; as for `COc1cc(Nc2ncc3c(n2)N2CCCC2C(=O)N3C)ccc1-n1ncnc1C` (stereo not shown) [Example 12-4], more than 39. As for `COc1cc(Nc2nc(SC)c3c(n2)N2CCCCC2C(=O)N3C)ccc1-n1cnc(C)c1` (stereo not shown) [Example 13], the figure is 14; as for `CCc1nc(Nc2ccc(-n3cnc(C)c3)c(OC)c2)nc2c1N(C)C(=O)[C@@H]1C[C@@H](OC)CN21` [Example 14], 67; as for `CCc1nc(Nc2ccc(-n3cnc(C)c3)c(C#N)c2)nc2c1N(C)C(=O)[C@@H]1C[C@@H](OC)CN21` [Example 15], 36.

`CCc1nc(Nc2ccc(-n3cnc(C)c3)c(C#N)c2)nc2c1NC(=O)[C@@H]1C[C@@H](OC)CN21` [Example 16]: the “Ratio Aβ(total)/Aβ42” value amounted to 33. With `CCc1nc(Nc2ccc(-n3cnc(C)c3)c(OC)c2)nc2c1NC(=O)[C@@H]1C[C@@H](OC)CN21` [Example 17] the figure was 68. As for `CCc1nc(Nc2ccc(-c3cnc(C)o3)c(OC)c2)nc2c1NC(=O)[C@@H]1C[C@@H](OC)CN21` [Example 19], the figure is 82; as for `CCc1nc(Nc2ccc(-n3cnc(C)c3)c(OC)c2)nc2c1N(C)C(=O)[C@]1(C)C[C@@H](OC)CN21` [Example 25], 73; as for `CCc1nc(Nc2ccc(-n3cnc(C)c3)c(OC)c2)nc2c1NC(=O)C1COCCN21` (stereo not shown) [Example 28], 29. As for `CCc1nc(Nc2ccc(-n3cnc(C)c3)c(OC)c2)nc2c1N(C)C(=O)C1COCCN21` (stereo not shown) [Example 29], the figure is 76; as for `COc1cc(Nc2ncc3c(n2)N2CCCOCC2C(=O)N3)ccc1-n1cnc(C)c1` (stereo not shown) [Example 30], 96. `COc1cc(Nc2ncc3c(n2)N2CCCOC2(C)C(=O)N3C)ccc1-n1cnc(C)c1` (stereo not shown) [Example 31]: the “Ratio Aβ(total)/Aβ42” value was determined as 55. Turning to `COc1cc(Nc2nc(C(C)C)c3c(n2)N2CCCC2C(=O)N3C)ccc1-n1cnc(C)c1` (stereo not shown) [Example 32], the “Ratio Aβ(total)/Aβ42” value is given as 66. Regarding `CC(C)Cc1nc(Nc2ccc(-c3cnn(C)c3)cc2)nc2c1N(C)C(=O)C1CCCN21` (stereo not shown) [Example 34], the “Ratio Aβ(total)/Aβ42” value was 30. As for `Cc1cn(-c2ccc(Nc3nc(CC(C)C)c4c(n3)N3CCCC3C(=O)N4C)cc2C#N)cn1` (stereo not shown) [Example 35], the figure is 71. With `CCc1nc(Nc2ccc(-n3cnc(C)c3)c(OC)c2)nc2c1N(C)C(=O)C1CCCCN21` (stereo not shown) [Example 36], the “Ratio Aβ(total)/Aβ42” value was determined as 86. With `COc1cc(Nc2nc(C(C)C)c3c(n2)N2CCN(C(=O)OC(C)(C)C)CC2C(=O)N3C)ccc1-n1cnc(C)c1` (stereo not shown) [Example 37] the figure was 12.
